# Assay results from patent US10596145B2, “Heterocyclic flavone derivatives, compositions, and methods related thereto” (Emory University, priority 2012, dated 2020).
# Entries after “also recorded” stand apart in the source; their conditions may differ.
# Tests used:
# C57BL/6J mice [1] = experiment: Tail suspension test; format: in vivo, mouse; details: 2.5 mg/kg oral, 21 days
# Experimental: The drug-treated mice were subjected tail suspension assay. […] Data are presented as mean±SEM.
# One suspends mice by the tail to a horizontal ring stand bar 30 cm above the floor using adhesive tape for 6 minutes and videotaped. Latency to immobility and time spent immobile will be scored for each mouse. Following the test, mice will be returned to their home cage. Immobility scores were compared by unpaired t test.
# C57BL/6J mice [2] = experiment: Locomotor activity assay; format: in vivo, mouse; details: 2.5 mg/kg oral, 3 weeks
# Experimental: The above drug-treated mice were subjected locomotor activity at day 22. […] Data are presented as mean±SEM.
# Locomotor activity was assessed using an automated system (San Diego Instruments, La Jolla, Calif., USA) with photobeams that recorded ambulations (consecutive beam breaks). Drug-treated mice were placed in the locomotor chambers, and their activity was recorded for 2 h with 30 min interval.
# [3] = Human liver microsomal stability assay; format: in vitro ADME; details: human liver microsomes, 1 h incubation
# Text: (§1) To explore these compounds' in vitro ADMET profiles, we conducted numerous in vitro assays.
# [4] = In vivo pharmacokinetic studies in mice; design: species or system mouse; details: in vivo
# Experimental: For compound a, the standard dosage of 1 mg/kg via i.v. injection and 5 mg/kg for P.O. route was employed. […] Presumably, the dosage is too low for the in vivo PK assay. Thus, the doses of the tested compound o were increased. […] Moreover, the bioavailability is around 2% for compound o at a 10 mg/kg dosage.
# Twenty to thirty grams mice within the age of 6-8 weeks old were administrated with the indicated compounds i. v. or orally. At different time points (3, 10, 30, 60, 120, 240, 360 and 480 min), blood aliquots (300-400 μl) were collected in tubes coated with lithium heparin, mixed gently, then kept on ice and centrifuged at 2500×g for 15 min at 4° C., within 1 h of collection. The plasma was then harvested and kept frozen at −20° C. until further processing. For each time point, 3 mice/group were employed. The plasma samples were analyzed by HPLC.
# TrkB = molecular target: T1, TrkB (Rattus norvegicus, UniProt Q63604); experiment: TrkB activation in primary cortical neurons (immunoblotting); format: cell-based; details: 500 nM, 15 min
# T1 construct: endogenous in cells; host or cells: primary cortical neurons from E17 rat embryos
# T1 sequence (Q63604 32-821): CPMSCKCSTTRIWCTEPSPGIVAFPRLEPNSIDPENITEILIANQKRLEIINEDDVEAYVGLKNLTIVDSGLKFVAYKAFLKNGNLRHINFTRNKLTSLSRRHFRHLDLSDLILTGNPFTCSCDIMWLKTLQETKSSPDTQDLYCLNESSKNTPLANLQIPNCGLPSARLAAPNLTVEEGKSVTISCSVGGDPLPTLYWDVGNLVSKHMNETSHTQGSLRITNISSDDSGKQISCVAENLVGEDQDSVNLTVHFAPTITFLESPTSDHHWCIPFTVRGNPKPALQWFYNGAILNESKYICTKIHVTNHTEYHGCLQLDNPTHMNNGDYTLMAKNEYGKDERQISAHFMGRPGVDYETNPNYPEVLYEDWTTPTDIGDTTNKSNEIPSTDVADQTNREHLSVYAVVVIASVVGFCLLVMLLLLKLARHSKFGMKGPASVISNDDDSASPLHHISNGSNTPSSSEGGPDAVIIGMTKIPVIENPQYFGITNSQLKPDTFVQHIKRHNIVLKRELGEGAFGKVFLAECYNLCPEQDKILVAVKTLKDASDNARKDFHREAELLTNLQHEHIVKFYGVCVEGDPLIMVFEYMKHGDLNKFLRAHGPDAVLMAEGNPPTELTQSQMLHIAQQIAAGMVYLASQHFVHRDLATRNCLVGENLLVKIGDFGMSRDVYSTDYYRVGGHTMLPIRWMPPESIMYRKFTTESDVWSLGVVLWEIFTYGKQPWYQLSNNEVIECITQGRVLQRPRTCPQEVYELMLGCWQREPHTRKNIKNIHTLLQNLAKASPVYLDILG
# Experimental: Primary cortical cultures from E17 rat embryos were treated with 500 nM of various synthetic flavone derivatives for 15 min. The cell lysates (20 μg) were analyzed by the immunoblotting.
# Rat primary neurons were treated with 500 nM various indicated compounds from 15 min. The neuronal lysates ([…]) were analyzed with various antibodies.
# 500 nM of different synthetic compounds were added to DIV 7 neurons for 15 min. The cell lysates were analyzed by immunoblotting with indicated p-Akt 473 antibodies.
# Replacing the 3′-dimethylamino group or 4′-morpholino group was tested for TrkB agonistic activity. To compare the TrkB activation by these compounds, primary cortical cultures were prepared and treated them with 500 nM of various compounds for 15 min and collected the cell lysates. […] The p-Akt ELISA analysis results were similar to the TrkB activation pattern (FIG. 2B, lower panel).
# HepG2 cells = experiment: In vitro cytotoxicity assay with HepG2 cells; format: cell-based; details: micronucleus and comet assays
# Experimental: HepG2 cells were treated with various concentrations of flavonoids for 24 h. The drug-treated cells were subjected to trypan blue exclusive assay. Data are presented as mean±SEM. (n=3, ***P<0.0001 vs vehicle).
# In vitro and in vivo ADMET (ADME plus toxicity) of certain compounds were examined. […] Micronuclei formation is an important endpoint in genotoxicity study. […] Next, a Comet assay was performed with 100 μM drug-treated HepG2 cells. As a positive control, etoposide, a topoisomerase inhibitor, which causes DNA strand breaks was used.
# [5] = Reactive metabolic screening assay; format: in vitro ADME; details: liver microsomal lysates
# Text: as §1
structure (smiles),measurement,setting,value
"Cc1nc2ccc3c(=O)cc(-c4ccc(N5CCCC5)cc4)oc3c2[nH]1 [compound o, 2-methyl-8-(4-(pyrrolidin-1-yl)phenyl)chromeno[7,8-d]imidazol-6(1H)-one]",immobility in tail suspension test,C57BL/6J mice [1],active in both FST and TST depression behavioral assays; also recorded: significantly reduced the immobility versus vehicle control
same,locomotor activity,C57BL/6J mice [2],neither compound o nor p altered the motion activity
same,remaining unchanged after incubation,[3],25.4%
same,half-life,"[4]; C57BL/6, mouse, 3 mg/kg",~1.72 h
same,oral bioavailability,"[4]; C57BL/6, mouse, po, 10 mg/kg",2%
same,AUC(0-t),"[4]; mouse, 3 mg/kg",~312 ng·h/mL
same,bioavailability,"[4]; mouse, po, 10 mg/kg",~2%
same,TrkB activation (p-TrkB immunoblotting),TrkB,higher agonistic activity than compound m
same,TrkB activation (p-TrkB immunoblotting),"TrkB; listed as 4′-pyrrolidino-7,8-methyl-imidazole-flavone",triggers TrkB activation in primary neurons
same,cytotoxicity or genotoxicity (overall conclusion),HepG2 cells,negligible cytotoxicity or genotoxicity
same,reactive metabolite / adduct formation,[5],quite stable in vitro
